Measurements reported in patent US11033648B2, “Method, system and device for reducing microbial concentration and/or biofilm formation and/or reducing mineral and chemical concentrations to purify contaminated surfaces and substances” (EMODs Technology, L.L.C., priority 2019, dated 2021).
Where two headings read alike, the source gives them in different places.

Experiments:
[1] = test system: Staphylococcus epidermidis ATCC 12228; experiment: Carrier test: H2O2 solutions treated with 400 to 420 nm light for 1 minute, applied to bacterial carriers after a dwell time; format: cell-based
Description: The solutions were applied to the targets after the dwell times of 1 minute, 5 minutes, 10 minutes, 30 minutes, 1 hour, 12 hours, 24 hours, 2, days, 5 days, and 7 days. After 7 days of dwell time, all solutions were treated with light again for 1 minute, and a target was treated after 1 minute of dwell time.

[2] = test system: microbes
[3] = test system: Desulfoviberio vulgaris Hildenborough (DvH); conditions: combined with radiation of 300 nm to 500 nm; in the presence of DvH, not replicated in sterile environment
Description: In Example 1, carbon steel coupons were incubated in the presence of oxygen and, as the oxidizing agent compound, hydrogen peroxide, combined with radiation of certain wavelengths of 300 nm to 500 nm in a synergistic reaction, with and without an inoculum of DvH. The metal loss of the carbon steel coupons was measured.

[4] = test system: DvH
Description: In example 2, steel coupons were incubated in cultures of DvH for three days with and without exposure to an oxidizing agent compound, specifically hydrogen peroxide, combined with radiation of certain wavelengths 300-500 nm in a synergistic reaction and then the coupons were measured to determine the amount of metal loss due to corrosion.

[5] = 7 days*: reactivation with light of 400 to 420 nm for 1 minute, 1 minute dwell, control 9.80E+04
[6] = 7 days*: reactivation with light of 400 to 420 nm for 1 minute, applied after 1 minute dwell time
[7] = applied 1 min after solution exposed to light (400 to 420 nm, 1 minute)
[8] = applied 1 min after solution exposed to light, control 6.04E+05 CFU per carrier
[9] = applied 5 min after solution exposed to light
[10] = applied 5 min after solution exposed to light, control 6.04E+05
[11] = applied 10 min after solution exposed to light
[12] = applied 10 min after solution exposed to light, control 6.04E+05
[13] = applied 30 min after solution exposed to light
[14] = applied 30 min after solution exposed to light, control 6.04E+05
[15] = applied 1 hr after solution exposed to light
[16] = applied 1 hr after solution exposed to light, control 6.04E+05
[17] = applied 12 hr after solution exposed to light
[18] = applied 12 hr after solution exposed to light, control 9.20E+04
[19] = applied 24 hr after solution exposed to light
[20] = applied 24 hr after solution exposed to light, control 1.33E+05
[21] = applied 2 days after solution exposed to light
[22] = applied 2 days after solution exposed to light, control 3.00E+05
[23] = applied 5 days after solution exposed to light
[24] = applied 5 days after solution exposed to light, control 4.50E+04
[25] = applied 7 days after solution exposed to light
[26] = applied 7 days after solution exposed to light, control 9.80E+04

Row | Compound | % Reduction vs. Control [1, 5] | CFU per carrier [1, 6] | CFU per carrier [1, 7] | % Reduction vs. Control [1, 8] | CFU per carrier [1, 9] | % Reduction vs. Control [1, 10] | CFU per carrier [1, 11] | % Reduction vs. Control [1, 12] | CFU per carrier [1, 13] | % Reduction vs. Control [1, 14] | CFU per carrier [1, 15] | % Reduction vs. Control [1, 16] | CFU per carrier [1, 17] | % Reduction vs. Control [1, 18] | CFU per carrier [1, 19] | % Reduction vs. Control [1, 20] | CFU per carrier [1, 21] | % Reduction vs. Control [1, 22] | CFU per carrier [1, 23] | % Reduction vs. Control [1, 24] | other results
1 | OO [0.3% H2O2, hydrogen peroxide] | nr | 1.03E+05 CFU per carrier | 1.10E+04 CFU per carrier | 98.18% | 3.00E+04 CFU per carrier | 95.04% | 1.98E+05 CFU per carrier | 67.24% | 7.00E+04 CFU per carrier | 88.42% | 7.00E+04 CFU per carrier | 88.42% | 1.27E+05 CFU per carrier | nr | 1.40E+04 CFU per carrier | 89.47% | 2.64E+05 CFU per carrier | 12.00% | 4.40E+04 CFU per carrier | 2.22% | CFU per carrier [1, 25]: 7.70E+04 CFU per carrier; % Reduction vs. Control [1, 26]: 21.43%
2 | OO [3% H2O2, hydrogen peroxide] | 89.80% | 1.00E+04 CFU per carrier | 7.00E+04 CFU per carrier | 88.42% | 7.00E+04 CFU per carrier | 88.42% | 3.10E+04 CFU per carrier | 94.87% | 2.80E+04 CFU per carrier | 95.37% | 7.10E+04 CFU per carrier | 88.25% | 1.80E+04 CFU per carrier | 80.43% | 2.10E+04 CFU per carrier | 84.21% | 9.00E+04 CFU per carrier | 70.00% | 3.29E+03 CFU per carrier | 92.69% | CFU per carrier [1, 25]: 1.50E+04 CFU per carrier; % Reduction vs. Control [1, 26]: 84.69%; microbes eliminated ([2]; 3% hydrogen peroxide together with radiation of 300 to 600 nanometers): 99.9999%; microbes eliminated ([2]; 3% solution alone, no radiation): approximately 30%
3 | OO [hydrogen peroxide] |  |  |  |  |  |  |  |  |  |  |  |  |  |  |  |  |  |  |  |  | effect on corrosion (weight loss) of carbon steel coupons [3]: reduce and/or eliminate corrosion in the presence of DvH; metal loss of coupons without treatment relative to coupons with treatment ([4]; 100 ppm (0.01%) hydrogen peroxide combined with radiation 300-500 nm, three days in DvH cultures): ~2 fold; corrosion of metal coupons ([4]; in the presence of hydrogen peroxide combined with radiation 300-500 nm, DvH cultures, three days): little to no corrosion
